In US20200278355A1, “CONJUGATED PROTEINS AND USES THEREOF” (THE SCRIPPS RESEARCH INSTITUTE, priority 2017, published 2020):

Columns and labels:
PTGES2 = target: T1, PTGES2 (Homo sapiens, UniProt Q9H7Z7); assay: ABPP-SILAC BPK-29yne competition in H460 cells: PTGES2; format: cell-based; details: 20 μM
T1 construct: Isotopically labeled H460 cell lines were generated as described above; endogenous in cells; host or cells: H460 (SILAC-labelled)
Method: Isotopically labeled H460 cell lines were generated as described above. Light and heavy cells were treated with compounds (20 μM) or DMSO, respectively, for 3 h, followed by labeling with the BPK-29yne (5 μM) for 30 min. Cells were washed once ice-cold PBS and lysed in 1% Triton 100-X dissolved in PBS with protease inhibitors (Sigma) by sonication. Lysate was adjusted to 1.5 mg ml^−1 in 500 μL. Samples were conjugated by CuAAC to Biotin-PEG4-azide (5 μL of 10 mM stocks in DMSO, final concentration=100 μM). CuAAC “click” mix contained TCEP, TBTA ligand and CuSO4 as detailed for isoTOP-ABPP sample preparation. Samples were further processed as detailed in: isoTOP-ABPP streptavidin enrichment and isoTOP-ABPP trypsin TEV digestion with the following exception: after overnight incubation at 37° C. with trypsin, tryptic digests were separated from the beads with Micro Bio-Spin columns (Bio-Rad) by centrifugation (1,000×g, 1 min). Beads were rinsed once with water (200 μL) and combined with tryptic digests. […]
The MS2 spectra data were extracted and searched using RAW Convertor and ProLuCID algorithm as described in isoTOP-ABPP peptide and protein quantification. […] Ratios of heavy/light (DMSO/test compound) peaks were calculated using in-house CIMAGE software. […] The mean R values and standard deviation for multiple biological experiments were calculated from the average ratios from each replicate. […]

KEAP1-WT NSCLC cells = assay: Anchorage-independent growth, KEAP1-WT NSCLC cells; format: cell-based, human; details: 5 μM
Text: Based on its in situ activity (FIG. 6D and FIG. 12A, 12G) and selectivity (FIGS. 6A, 6B), BPK-29 was chosen for additional biological studies. […] Exogenous expression of […] the growth inhibition caused by BPK-29.

[1] = tested on: CRY1, DEPDC1, and CPLX2 expression in KEAP1-WT H2009 cells; assay: Gene expression changes (qPCR) in KEAP1-WT NSCLC cells; format: cell-based, human

T1 sequence (Q9H7Z7 whole entry): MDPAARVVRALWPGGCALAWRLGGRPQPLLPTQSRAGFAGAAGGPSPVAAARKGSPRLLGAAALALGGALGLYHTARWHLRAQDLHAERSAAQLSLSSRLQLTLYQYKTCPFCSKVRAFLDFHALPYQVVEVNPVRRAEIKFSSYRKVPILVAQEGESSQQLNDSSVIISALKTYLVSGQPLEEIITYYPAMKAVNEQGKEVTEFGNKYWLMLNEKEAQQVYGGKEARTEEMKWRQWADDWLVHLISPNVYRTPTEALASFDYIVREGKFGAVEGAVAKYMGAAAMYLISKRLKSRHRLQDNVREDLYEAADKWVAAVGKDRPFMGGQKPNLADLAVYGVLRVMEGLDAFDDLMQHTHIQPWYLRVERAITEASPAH

Structure (SMILES): O=C(c1ccc(N2CCOCC2)cc1)N1CCCC(N(Cc2ccccc2)C(=O)CCl)CC1 (stereo not drawn) [BPK-29, N-benzyl-2-chloro-N-(1-(4-morpholinobenzoyl)azepan-4-yl)acetamide]
- BPK-29-competed BPK-29yne analysis (PTGES2): Yes (Competed defined as showing R value ≥ 2.5 at 20 μM of test compound)
- anchorage-independent growth (KEAP1-WT NSCLC cells): minimally affected
- gene expression changes (CRY1, DEPDC1, CPLX2) [1]: not observed
